This is an account of results in patent US20250092016A1, “COMPOUNDS AND COMPOSITIONS FOR THE TREATMENT OF CORONAVIRAL RELATED DISEASES” (priority 2021, published 2025).

The target of test [1] is T1, SARS-CoV-2 main protease (M^pro) (Severe acute respiratory syndrome coronavirus 2, UniProt P0DTD1). The experiment in a line: Rapid-Fire MS Biochemical Assay measuring Mpro activity (5 nM Mpro). The settings on record: Table 1B, Mpro inhibition, 5 μM substrate peptide, 120 min, read-out: Rapid-Fire Assay IC50.
For test [2], the target named is T1, SARS-CoV-2 main protease (M^pro). The experiment in a line: Rapid-Fire MS Biochemical Assay measuring Mpro activity (12.5 nM Mpro). Conditions: Table 1A, Mpro inhibition, 5 μM substrate peptide, 30 min.

A word on the IC50: it is the concentration needed to halve the response being measured. As to `N#CC1CN(c2ccccc2)C(=O)N1c1cncc2ccccc12` (racemic) [Compound 1, 3-(isoquinolin-4-yl)-2-oxo-1-phenylimidazolidine-4-carbonitrile], the IC50 in test [1] was 20 to 200 nM; in test [2] it was 37 nM.
Regarding `N#CC1CN(c2cccc(Cl)c2)C(=O)N1c1cncc2ccccc12` (racemic) [Compound 2, 1-(3-chlorophenyl)-3-(isoquinolin-4-yl)-2-oxoimidazolidine-4-carbonitrile], the IC50 in test [1] is less than 20 nM; in test [2] it was 5 nM.
With `N#CC1CN(c2ccc(C(F)(F)F)cn2)C(=O)N1c1cncc2ccccc12` (racemic) [Compound 3, 3-(isoquinolin-4-yl)-2-oxo-1-(5-(trifluoromethyl)pyridin-2-yl)imidazolidine-4-carbonitrile], the IC50 was less than 20 nM in test [1] and 7 nM in test [2].
The like results for `N#CC1CN(c2ccc(C(F)(F)F)cc2)C(=O)N1c1cncc2ccccc12` (racemic) [Compound 4, 3-(isoquinolin-4-yl)-2-oxo-1-(4-(trifluoromethyl)phenyl)imidazolidine-4-carbonitrile] were, in that order, less than 20 nM and less than 5 nM.
As for `N#CC1CN(c2ccc(F)cc2)C(=O)N1c1cncc2ccccc12` (racemic) [Compound 6, 1-(4-fluorophenyl)-3-(isoquinolin-4-yl)-2-oxoimidazolidine-4-carbonitrile], the half-maximal inhibitory concentration (IC50) in test [1] is 20 to 200 nM; in test [2], 27 nM.
In the case of `N#CC1CN(c2cccc(F)c2)C(=O)N1c1cncc2ccccc12` (racemic) [Compound 7, 1-(3-fluorophenyl)-3-(isoquinolin-4-yl)-2-oxoimidazolidine-4-carbonitrile], the IC50 is less than 20 nM in test [1] and 6 nM in test [2].
Turning to `N#CC1CN(c2ccc(Cl)cn2)C(=O)N1c1cncc2ccccc12` (racemic) [Compound 10, 1-(5-chloropyridin-2-yl)-3-(isoquinolin-4-yl)-2-oxoimidazolidine-4-carbonitrile], the IC50 was less than 20 nM in test [1] and 5 nM in test [2].
In the case of `N#C[C@H]1CN(c2ccccc2)C(=O)N1c1cncc2ccccc12` (single isomer, unassigned) [Compound 1a], the IC50 in test [1] is less than 20 nM; in test [2] it was 9 nM.
The like results for `N#C[C@@H]1CN(c2ccccc2)C(=O)N1c1cncc2ccccc12` (single isomer, unassigned) [Compound 1b] were, in that order, more than 1000 nM and 6400 nM.
Consider `N#C[C@H]1CN(c2cccc(Cl)c2)C(=O)N1c1cncc2ccccc12` (single isomer, unassigned) [Compound 2a], for which the IC50 in test [1] is less than 20 nM; in test [2], less than 5 nM.
Turning to `N#C[C@@H]1CN(c2cccc(Cl)c2)C(=O)N1c1cncc2ccccc12` (single isomer, unassigned) [Compound 2b], the figures for the IC50 in test [1] and in test [2] were more than 1000 nM and 3000 nM, respectively.
In the case of `N#CC1CN(c2ccc(Cl)cc2)C(=O)N1c1cncc2ccccc12` (centres unmarked) [Compound 5, 1-(4-chlorophenyl)-3-(isoquinolin-4-yl)-2-oxoimidazolidine-4-carbonitrile], the results for the IC50 in test [1] and in test [2] were less than 20 nM and less than 5 nM, respectively.
For the compound `N#CC1CN(c2ccc(F)cn2)C(=O)N1c1cncc2ccccc12` (centres unmarked) [Compound 8, 1-(5-fluoropyridin-2-yl)-3-(isoquinolin-4-yl)-2-oxoimidazolidine-4-carbonitrile], the results for the IC50 in test [1] and in test [2] were 20 to 200 nM and 77 nM, respectively.
